# From the supplement of paper PMC6045584
# ± gives the standard deviation of the averaged measurements.
# Legend:
# [1] = compound: T1, Nc1nc2[nH]cnc2c(=S)[nH]1 [TIOGUANINE]; assay: area under dose-response curve of surviving fraction (unscaled, Aref=0) (surviving fraction x log10(nM)); higher = more resistant; conditions: exposure time: 5 days; dose range 0.5-1000 nM
# In short: (§1)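 Three screens per tumour cell line were run in 384-well plates at eight inhibitor concentrations from 0.5 to 1000 nM over five days. Surviving fractions, from CellTiter-Glo luminescence normalised to DMSO-only wells, were fitted with 3-parameter logistic curves in the drc R package. The reported area under the curve is the unscaled activity area. It spans log10 dose, and Aref is 0.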
# [2] = compound: T2, CC[C@@H]1C(=O)N(C)c2cnc(Nc3ccc(C(=O)NC4CCN(C)CC4)cc3OC)nc2N1C1CCCC1 [BI-2536]; assay: as above; conditions: exposure time: 5 days; dose range 0.5-1000 nM
# In short: as §1
# [3] = compound: T3, CC1(C)CC(=O)c2c(C(F)(F)F)nn(-c3ccc(C(N)=O)c(N[C@H]4CC[C@H](OC(=O)CN)CC4)c3)c2C1 [SNX-5422]; assay: as above; conditions: exposure time: 5 days; dose range 0.5-1000 nM
# In short: as §1
# [4] = compound: Cn1cc(C2=Nc3cc(NC(=O)C(N)C4CCCCC4)cc4c3C2=CNNC4=O)cn1; assay: as above; conditions: exposure time: 5 days; dose range 0.5-1000 nM
# In short: as §1
# [5] = compound: T4, CN(C)C/C=C/C(=O)Nc1cc2c(Nc3ccc(F)c(Cl)c3)ncnc2cc1O[C@H]1CCOC1 [AFATINIB]; assay: as above; conditions: exposure time: 5 days; dose range 0.5-1000 nM
# In short: as §1
# [6] = compound: T1, TIOGUANINE; assay: surviving fraction relative to DMSO-only wells; higher = less growth inhibition; conditions: exposure time: 5 days
# In short: (§2)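 Viability was scored with CellTiter-Glo luminescence and normalised to the median of DMSO-only wells as surviving fraction. Beforehand, log-phase tumour cell lines were seeded at 250–500 cells per well in 384-well plates, allowed 24 hours, and exposed continuously for five days to inhibitors at 0.5, 1, 5, 10, 50, 100, 500 and 1000 nM. Only lines whose three screens gave replicate Pearson r >0.7 and median Z' >0.3 were kept.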
# [7] = compound: CNC(=O)c1ccc(N2C(=S)N(c3ccc(C#N)c(C(F)(F)F)c3)C(=O)C2(C)C)cc1F [MDV3100]; assay: as above; conditions: exposure time: 5 days
# In short: as §2
# [8] = compound: C=CC(=O)Nc1cc2c(Nc3ccc(F)c(Cl)c3)ncnc2cc1OCCCN1CCOCC1 [CANERTINIB]; assay: as above; conditions: exposure time: 5 days
# In short: as §2
# [9] = compound: T2, BI-2536; assay: as above; conditions: exposure time: 5 days
# In short: as §2
# [10] = compound: T3, SNX-5422; assay: as above; conditions: exposure time: 5 days
# In short: as §2
# [11] = compound: Cn1cc(C2=Nc3cc(NC(=O)C(N)C4CCCCC4)cc4c3C2=CNNC4=O)cn1; assay: as above; conditions: exposure time: 5 days
# In short: as §2
# [12] = compound: T4, AFATINIB; assay: as above; conditions: exposure time: 5 days
# In short: as §2
# [13] = compound: CCCCCCCCCCCCCCCC(=O)Nc1ccn([C@@H]2O[C@H](CO)[C@@H](O)[C@@H]2C#N)c(=O)n1 [SAPACITABINE]; assay: as above; conditions: exposure time: 5 days
# In short: as §2
test system,measurement,setting,value
HCC202 BREAST,area under dose-response curve,[1],4.41
same,area under dose-response curve,[2],1.68
same,area under dose-response curve,[3],2.33
same,area under dose-response curve,[4],2.24
same,area under dose-response curve,[5],1.39
same,surviving fraction,[6]; 0.5 nM,1.28 ± 0.11
same,surviving fraction,[6]; 1 nM,1.25 ± 0.14
same,surviving fraction,[6]; 5 nM,1.32 ± 0.35
same,surviving fraction,[6]; 10 nM,1.3 ± 0.28
same,surviving fraction,[6]; 50 nM,1.32 ± 0.14
same,surviving fraction,[6]; 100 nM,1.78 ± 0.35
same,surviving fraction,[6]; 500 nM,1.2 ± 0.19
same,surviving fraction,[6]; 1000 nM,1.24 ± 0.067
same,surviving fraction,[7]; 0.5 nM,0.968 ± 0.098
same,surviving fraction,[7]; 1 nM,0.983 ± 0.18
same,surviving fraction,[7]; 5 nM,0.865 ± 0.21
same,surviving fraction,[7]; 10 nM,0.97 ± 0.34
same,surviving fraction,[7]; 50 nM,1.1 ± 0.043
same,surviving fraction,[7]; 100 nM,0.86 ± 0.12
same,surviving fraction,[7]; 500 nM,0.999 ± 0.25
same,surviving fraction,[7]; 1000 nM,0.623 ± 0.085
same,surviving fraction,[8]; 0.5 nM,0.939 ± 0.12
same,surviving fraction,[8]; 1 nM,0.93 ± 0.18
same,surviving fraction,[8]; 5 nM,0.867 ± 0.21
same,surviving fraction,[8]; 10 nM,0.682 ± 0.011
same,surviving fraction,[8]; 50 nM,0.602 ± 0.19
same,surviving fraction,[8]; 100 nM,0.494 ± 0.053
same,surviving fraction,[8]; 500 nM,0.333 ± 0.057
same,surviving fraction,[8]; 1000 nM,0.177 ± 0.051
same,surviving fraction,[9]; 0.5 nM,0.938 ± 0.18
same,surviving fraction,[9]; 1 nM,0.952 ± 0.097
same,surviving fraction,[9]; 5 nM,0.421 ± 0.034
same,surviving fraction,[9]; 10 nM,0.345 ± 0.037
same,surviving fraction,[9]; 50 nM,0.538 ± 0.033
same,surviving fraction,[9]; 100 nM,0.502 ± 0.12
same,surviving fraction,[9]; 500 nM,0.379 ± 0.044
same,surviving fraction,[9]; 1000 nM,0.306 ± 0.062
same,surviving fraction,[10]; 0.5 nM,1.37 ± 0.51
same,surviving fraction,[10]; 1 nM,0.842 ± 0.83
same,surviving fraction,[10]; 5 nM,0.874 ± 0.71
same,surviving fraction,[10]; 10 nM,1.11 ± 0.68
same,surviving fraction,[10]; 50 nM,0.514 ± 0.12
same,surviving fraction,[10]; 100 nM,0.534 ± 0.12
same,surviving fraction,[10]; 500 nM,0.218 ± 0.053
same,surviving fraction,[10]; 1000 nM,0.186 ± 0.043
same,surviving fraction,[11]; 0.5 nM,0.89 ± 0.18
same,surviving fraction,[11]; 1 nM,0.775 ± 0.22
same,surviving fraction,[11]; 5 nM,0.967 ± 0.15
same,surviving fraction,[11]; 10 nM,0.838 ± 0.22
same,surviving fraction,[11]; 50 nM,0.66 ± 0.27
same,surviving fraction,[11]; 100 nM,0.505 ± 0.18
same,surviving fraction,[11]; 500 nM,0.274 ± 0.049
same,surviving fraction,[11]; 1000 nM,0.341 ± 0.054
same,surviving fraction,[12]; 0.5 nM,1.12 ± 0.36
same,surviving fraction,[12]; 1 nM,0.943 ± 0.36
same,surviving fraction,[12]; 5 nM,0.561 ± 0.2
same,surviving fraction,[12]; 10 nM,0.442 ± 0.098
same,surviving fraction,[12]; 50 nM,0.253 ± 0.07
same,surviving fraction,[12]; 100 nM,0.191 ± 0.048
same,surviving fraction,[12]; 500 nM,0.0983 ± 0.031
same,surviving fraction,[12]; 1000 nM,0.0747 ± 0.0055
same,surviving fraction,[13]; 0.5 nM,0.86 ± 0.17
same,surviving fraction,[13]; 1 nM,0.93 ± 0.091
same,surviving fraction,[13]; 5 nM,1.04 ± 0.38
same,surviving fraction,[13]; 10 nM,0.761 ± 0.21
same,surviving fraction,[13]; 50 nM,1.08 ± 0.37
same,surviving fraction,[13]; 100 nM,0.904 ± 0.0085
same,surviving fraction,[13]; 500 nM,0.911 ± 0.15
same,surviving fraction,[13]; 1000 nM,0.851 ± 0.048
